Measured values: the kinase profiling compilation of Christmann-Franck et al. (2016)

Legend:
Experiment in all cases: KINOMEscan competition binding
Conditions in all cases: compound 1.0 µM
STK3 (human) = STK3 (human) (UniProt Q13188)
VRK2 (human) = VRK2 (human) (UniProt Q86Y07)
MAP2K2 (human) = MAP2K2 (human) (UniProt P36507)
NEK5 (human) = NEK5 (human) (UniProt Q6P3R8)
PRKCQ (human) = PRKCQ (human) (UniProt Q04759)
ACVR2A (human) = ACVR2A (human) (UniProt P27037)
[1] = tested on: EIF2AK4 KD2 (human), Q9P2K8 [S808G]
Sequence of EIF2AK4 KD2 (human), Q9P2K8 [S808G] (Q9P2K8 whole entry S808G, looked up): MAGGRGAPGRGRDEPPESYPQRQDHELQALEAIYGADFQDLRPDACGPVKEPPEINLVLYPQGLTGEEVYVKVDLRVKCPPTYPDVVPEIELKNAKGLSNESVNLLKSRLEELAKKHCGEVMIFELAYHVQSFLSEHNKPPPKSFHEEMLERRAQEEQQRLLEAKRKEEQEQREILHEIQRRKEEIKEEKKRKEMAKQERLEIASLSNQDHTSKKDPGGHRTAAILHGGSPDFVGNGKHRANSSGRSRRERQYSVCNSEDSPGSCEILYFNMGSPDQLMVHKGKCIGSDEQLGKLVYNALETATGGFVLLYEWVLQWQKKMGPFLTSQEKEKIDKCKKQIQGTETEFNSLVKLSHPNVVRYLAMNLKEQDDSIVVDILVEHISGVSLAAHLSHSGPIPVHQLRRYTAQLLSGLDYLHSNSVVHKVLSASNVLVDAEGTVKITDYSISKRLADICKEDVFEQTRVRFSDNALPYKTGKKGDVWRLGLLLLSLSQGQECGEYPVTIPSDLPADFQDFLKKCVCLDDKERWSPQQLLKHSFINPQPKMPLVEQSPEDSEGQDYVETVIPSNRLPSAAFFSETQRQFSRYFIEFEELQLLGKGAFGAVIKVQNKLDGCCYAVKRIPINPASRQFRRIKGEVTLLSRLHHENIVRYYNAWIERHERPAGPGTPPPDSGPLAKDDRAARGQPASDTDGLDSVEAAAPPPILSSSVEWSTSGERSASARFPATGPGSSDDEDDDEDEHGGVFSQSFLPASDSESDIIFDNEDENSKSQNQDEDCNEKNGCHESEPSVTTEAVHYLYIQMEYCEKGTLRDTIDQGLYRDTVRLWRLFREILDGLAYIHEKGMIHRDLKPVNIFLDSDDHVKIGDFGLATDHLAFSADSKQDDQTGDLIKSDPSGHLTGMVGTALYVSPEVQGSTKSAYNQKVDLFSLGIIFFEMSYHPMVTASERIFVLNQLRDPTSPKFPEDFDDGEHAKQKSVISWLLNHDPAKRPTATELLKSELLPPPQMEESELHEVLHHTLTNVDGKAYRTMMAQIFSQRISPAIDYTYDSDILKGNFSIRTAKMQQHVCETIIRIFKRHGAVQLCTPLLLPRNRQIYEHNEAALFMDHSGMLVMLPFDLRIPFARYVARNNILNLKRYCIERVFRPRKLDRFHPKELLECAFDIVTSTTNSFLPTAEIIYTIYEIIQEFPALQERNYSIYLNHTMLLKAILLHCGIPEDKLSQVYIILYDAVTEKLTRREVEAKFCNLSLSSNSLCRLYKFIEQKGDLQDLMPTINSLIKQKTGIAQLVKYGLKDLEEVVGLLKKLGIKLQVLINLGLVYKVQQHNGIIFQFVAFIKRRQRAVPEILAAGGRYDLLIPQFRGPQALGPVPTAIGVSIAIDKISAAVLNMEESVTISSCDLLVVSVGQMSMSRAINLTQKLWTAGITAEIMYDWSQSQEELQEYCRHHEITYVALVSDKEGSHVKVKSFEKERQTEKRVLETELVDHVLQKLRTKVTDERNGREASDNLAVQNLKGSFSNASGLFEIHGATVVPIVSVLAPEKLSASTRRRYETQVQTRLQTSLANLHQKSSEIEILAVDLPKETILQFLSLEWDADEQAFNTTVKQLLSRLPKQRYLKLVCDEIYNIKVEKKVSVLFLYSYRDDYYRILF

PLK3 (human) = PLK3 (human) (UniProt Q9H4B4)
ROS1 (human) = ROS1 (human) (UniProt P08922)
SRPK3 (human) = SRPK3 (human) (UniProt Q9UPE1)
Sequence of SRPK3 (human) (Q9UPE1 whole entry, looked up): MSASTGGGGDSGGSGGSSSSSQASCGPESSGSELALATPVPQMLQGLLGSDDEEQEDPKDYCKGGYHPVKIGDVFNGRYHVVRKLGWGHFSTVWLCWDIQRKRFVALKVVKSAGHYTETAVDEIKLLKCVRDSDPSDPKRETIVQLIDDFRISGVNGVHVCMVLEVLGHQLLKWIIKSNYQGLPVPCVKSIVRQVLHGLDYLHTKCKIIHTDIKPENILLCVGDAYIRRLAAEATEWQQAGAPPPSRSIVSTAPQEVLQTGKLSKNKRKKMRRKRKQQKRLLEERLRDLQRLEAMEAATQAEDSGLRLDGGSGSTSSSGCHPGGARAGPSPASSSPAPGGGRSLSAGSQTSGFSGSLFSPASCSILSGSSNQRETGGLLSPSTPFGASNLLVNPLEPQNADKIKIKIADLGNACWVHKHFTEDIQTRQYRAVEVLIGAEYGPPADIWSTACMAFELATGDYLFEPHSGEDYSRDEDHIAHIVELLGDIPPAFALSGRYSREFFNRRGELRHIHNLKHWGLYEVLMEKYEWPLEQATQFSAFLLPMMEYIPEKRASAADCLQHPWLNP

[2] = tested on: PIK3CA (human), P42336 [H1047L]
CDK3 (human) = CDK3 (human) (UniProt Q00526)
LIMK1 (human) = LIMK1 (human) (UniProt P53667)
Sequence of LIMK1 (human) (P53667 whole entry, looked up): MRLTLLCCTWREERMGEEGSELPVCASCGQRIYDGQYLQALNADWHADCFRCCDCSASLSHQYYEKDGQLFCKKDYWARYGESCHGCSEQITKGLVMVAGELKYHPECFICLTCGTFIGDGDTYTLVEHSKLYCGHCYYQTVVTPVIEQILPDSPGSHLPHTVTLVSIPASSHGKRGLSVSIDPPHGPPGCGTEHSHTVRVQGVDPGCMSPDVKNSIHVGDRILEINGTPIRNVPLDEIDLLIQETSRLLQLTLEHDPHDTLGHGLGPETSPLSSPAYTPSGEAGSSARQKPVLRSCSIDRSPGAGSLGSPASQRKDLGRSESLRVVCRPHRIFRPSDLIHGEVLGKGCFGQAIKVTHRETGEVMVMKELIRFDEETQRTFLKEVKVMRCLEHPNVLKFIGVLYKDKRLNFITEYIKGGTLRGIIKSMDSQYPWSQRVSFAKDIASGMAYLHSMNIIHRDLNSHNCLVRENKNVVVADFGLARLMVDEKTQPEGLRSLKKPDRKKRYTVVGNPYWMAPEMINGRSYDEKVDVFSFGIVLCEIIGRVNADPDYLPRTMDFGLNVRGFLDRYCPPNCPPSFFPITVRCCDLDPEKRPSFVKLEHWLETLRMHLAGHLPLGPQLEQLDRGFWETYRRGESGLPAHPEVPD

STK24 (human) = STK24 (human) (UniProt Q9Y6E0)
PRKG1 (human) = PRKG1 (human) (UniProt Q13976)
NEK11 (human) = NEK11 (human) (UniProt Q8NG66)
CIT (human) = CIT (human) (UniProt O14578)
[3] = tested on: EGFR (human), P00533 [P753S; 747-752 del]
FLT1 (human) = FLT1 (human) (UniProt P17948)
ERN1 (human) = ERN1 (human) (UniProt O75460)
LYN (human) = LYN (human) (UniProt P07948)
TGFBR2 (human) = TGFBR2 (human) (UniProt P37173)
STK38L (human) = STK38L (human) (UniProt Q9Y2H1)
FER (human) = FER (human) (UniProt P16591)
EPHA4 (human) = EPHA4 (human) (UniProt P54764)
Sequence of EPHA4 (human) (P54764 whole entry, looked up): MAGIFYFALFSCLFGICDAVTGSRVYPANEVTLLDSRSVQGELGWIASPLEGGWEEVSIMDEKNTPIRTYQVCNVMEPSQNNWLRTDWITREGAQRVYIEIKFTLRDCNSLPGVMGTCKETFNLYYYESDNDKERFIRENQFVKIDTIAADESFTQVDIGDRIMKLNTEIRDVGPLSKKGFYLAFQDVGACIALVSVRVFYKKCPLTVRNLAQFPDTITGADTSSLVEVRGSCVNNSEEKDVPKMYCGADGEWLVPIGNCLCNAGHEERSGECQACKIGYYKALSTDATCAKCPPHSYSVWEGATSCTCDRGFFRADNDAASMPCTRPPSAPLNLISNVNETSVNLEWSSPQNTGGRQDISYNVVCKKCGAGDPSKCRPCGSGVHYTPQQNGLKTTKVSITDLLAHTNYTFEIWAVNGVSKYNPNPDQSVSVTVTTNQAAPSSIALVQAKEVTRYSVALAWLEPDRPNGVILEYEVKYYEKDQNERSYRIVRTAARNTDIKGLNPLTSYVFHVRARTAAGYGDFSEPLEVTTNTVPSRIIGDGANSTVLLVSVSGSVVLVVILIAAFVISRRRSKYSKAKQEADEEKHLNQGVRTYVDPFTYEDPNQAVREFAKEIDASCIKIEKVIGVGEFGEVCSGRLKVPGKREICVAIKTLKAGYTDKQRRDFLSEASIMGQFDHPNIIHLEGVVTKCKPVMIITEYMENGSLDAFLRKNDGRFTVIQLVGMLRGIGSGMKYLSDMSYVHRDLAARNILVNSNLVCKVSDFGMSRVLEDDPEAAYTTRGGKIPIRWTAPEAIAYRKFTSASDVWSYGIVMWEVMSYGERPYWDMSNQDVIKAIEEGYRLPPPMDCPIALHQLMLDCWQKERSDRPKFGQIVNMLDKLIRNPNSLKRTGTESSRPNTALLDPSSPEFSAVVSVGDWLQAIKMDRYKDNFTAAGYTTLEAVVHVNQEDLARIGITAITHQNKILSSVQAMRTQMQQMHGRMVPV

[4] = tested on: FLT3 (human), P36888 [K663Q]
BRSK1 (human) = BRSK1 (human) (UniProt Q8TDC3)
RPS6KA6 KD1 (human) = RPS6KA6 KD1 (human) (UniProt Q9UK32)
AKT3 (human) = AKT3 (human) (UniProt Q9Y243)
NTRK3 (human) = NTRK3 (human) (UniProt Q16288)
YSK4 (human) = YSK4 (human) (UniProt Q56UN5)
AURKA (human) = AURKA (human) (UniProt O14965)
WNK3 (human) = WNK3 (human) (UniProt Q9BYP7)
MARK1 (human) = MARK1 (human) (UniProt Q9P0L2)
Sequence of MARK1 (human) (Q9P0L2 whole entry, looked up): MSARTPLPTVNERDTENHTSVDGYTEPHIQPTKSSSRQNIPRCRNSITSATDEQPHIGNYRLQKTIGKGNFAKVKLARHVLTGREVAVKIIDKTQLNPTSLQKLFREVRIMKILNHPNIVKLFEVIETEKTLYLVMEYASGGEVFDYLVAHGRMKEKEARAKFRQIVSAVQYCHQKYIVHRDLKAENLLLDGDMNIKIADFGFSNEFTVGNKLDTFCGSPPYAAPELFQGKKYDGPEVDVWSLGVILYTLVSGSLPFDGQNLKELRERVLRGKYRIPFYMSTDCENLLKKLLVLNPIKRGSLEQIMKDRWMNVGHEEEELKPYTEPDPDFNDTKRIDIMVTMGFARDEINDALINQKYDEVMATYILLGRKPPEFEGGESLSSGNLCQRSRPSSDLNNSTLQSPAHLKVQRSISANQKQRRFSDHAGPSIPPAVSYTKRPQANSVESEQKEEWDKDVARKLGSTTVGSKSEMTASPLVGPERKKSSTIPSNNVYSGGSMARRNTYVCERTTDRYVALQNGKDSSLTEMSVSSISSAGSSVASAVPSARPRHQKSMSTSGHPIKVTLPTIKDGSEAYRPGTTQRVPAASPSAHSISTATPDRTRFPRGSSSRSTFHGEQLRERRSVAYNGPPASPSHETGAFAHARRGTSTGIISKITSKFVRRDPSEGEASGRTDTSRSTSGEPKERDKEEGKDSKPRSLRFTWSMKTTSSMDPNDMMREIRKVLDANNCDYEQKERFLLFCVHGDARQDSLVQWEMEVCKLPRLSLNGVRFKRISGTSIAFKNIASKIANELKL

SIK2 (human) = SIK2 (human) (UniProt Q9H0K1)
STK32C (human) = STK32C (human) (UniProt Q86UX6)
CLK2 (human) = CLK2 (human) (UniProt P49760)
MLTK (human) = MLTK (human) (UniProt Q9NYL2)
[5] = molecular target: JAK2 JH1 catalytic (human) (UniProt O60674)

Sequence of MAP2K2 (human) (P36507 whole entry, looked up): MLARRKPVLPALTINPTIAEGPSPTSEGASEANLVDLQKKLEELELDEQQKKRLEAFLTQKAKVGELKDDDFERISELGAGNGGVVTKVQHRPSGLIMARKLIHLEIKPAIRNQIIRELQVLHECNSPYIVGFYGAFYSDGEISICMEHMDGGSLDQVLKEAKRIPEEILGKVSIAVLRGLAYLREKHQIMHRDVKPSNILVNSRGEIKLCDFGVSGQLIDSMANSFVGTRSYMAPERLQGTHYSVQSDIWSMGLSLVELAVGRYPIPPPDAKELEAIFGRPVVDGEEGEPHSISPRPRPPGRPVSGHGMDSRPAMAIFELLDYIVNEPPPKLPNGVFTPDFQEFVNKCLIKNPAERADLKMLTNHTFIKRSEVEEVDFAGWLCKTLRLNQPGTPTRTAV

How did the kinase still bound, per cent of control (STK3 (human)) turn out when CNc1nc(Nc2ccc(C(=O)N3CCOCC3)cc2OC)ncc1Cl was run?
The kinase still bound, per cent of control was 76%.

And the kinase still bound, per cent of control (VRK2 (human))?
Its kinase still bound, per cent of control is 95%.

What about the kinase still bound, per cent of control (MAP2K2 (human)) of the same compound?
The kinase still bound, per cent of control was 84%.

What about the kinase still bound, per cent of control (NEK5 (human)) of the same compound?
The kinase still bound, per cent of control was 100%.

And the kinase still bound, per cent of control (PRKCQ (human))?
Its kinase still bound, per cent of control is 100%.

What about the kinase still bound, per cent of control (ACVR2A (human)) of the same compound?
Its kinase still bound, per cent of control is 75%.

And the kinase still bound, per cent of control [1]?
Its kinase still bound, per cent of control is 85%.

What about the kinase still bound, per cent of control (PLK3 (human)) of the same compound?
The kinase still bound, per cent of control was 100%.

What about the kinase still bound, per cent of control (ROS1 (human)) of the same compound?
The kinase still bound, per cent of control was 100%.

And the kinase still bound, per cent of control (SRPK3 (human))?
Its kinase still bound, per cent of control is 64%.

And the kinase still bound, per cent of control [2]?
The kinase still bound, per cent of control was 100%.

And the residual activity (CDK3 (human))?
The residual activity was 100%.

What about the kinase still bound, per cent of control (LIMK1 (human)) of the same compound?
Its kinase still bound, per cent of control is 91%.

And the kinase still bound, per cent of control (STK24 (human))?
Its kinase still bound, per cent of control is 79%.

What about the kinase still bound, per cent of control (PRKG1 (human)) of the same compound?
The kinase still bound, per cent of control was 82%.

What about the kinase still bound, per cent of control (NEK11 (human)) of the same compound?
The kinase still bound, per cent of control was 100%.

And the kinase still bound, per cent of control (CIT (human))?
The kinase still bound, per cent of control was 100%.

What about the kinase still bound, per cent of control [3] of the same compound?
The kinase still bound, per cent of control was 89%.

What about the kinase still bound, per cent of control (FLT1 (human)) of the same compound?
Its kinase still bound, per cent of control is 100%.

What about the kinase still bound, per cent of control (ERN1 (human)) of the same compound?
The kinase still bound, per cent of control was 88%.

And the kinase still bound, per cent of control (LYN (human))?
The kinase still bound, per cent of control was 100%.

And the kinase still bound, per cent of control (TGFBR2 (human))?
Its kinase still bound, per cent of control is 100%.

What about the kinase still bound, per cent of control (STK38L (human)) of the same compound?
Its kinase still bound, per cent of control is 86%.

What about the kinase still bound, per cent of control (FER (human)) of the same compound?
The kinase still bound, per cent of control was 100%.

And the kinase still bound, per cent of control (EPHA4 (human))?
Its kinase still bound, per cent of control is 100%.

And the kinase still bound, per cent of control [4]?
Its kinase still bound, per cent of control is 53%.

What about the kinase still bound, per cent of control (BRSK1 (human)) of the same compound?
Its kinase still bound, per cent of control is 96%.

And the kinase still bound, per cent of control (RPS6KA6 KD1 (human))?
Its kinase still bound, per cent of control is 100%.

And the kinase still bound, per cent of control (AKT3 (human))?
Its kinase still bound, per cent of control is 81%.

And the kinase still bound, per cent of control (NTRK3 (human))?
The kinase still bound, per cent of control was 100%.

And the kinase still bound, per cent of control (YSK4 (human))?
The kinase still bound, per cent of control was 44%.

What about the kinase still bound, per cent of control (AURKA (human)) of the same compound?
The kinase still bound, per cent of control was 96%.

And the kinase still bound, per cent of control (WNK3 (human))?
Its kinase still bound, per cent of control is 93%.

What about the kinase still bound, per cent of control (MARK1 (human)) of the same compound?
Its kinase still bound, per cent of control is 45%.

What about the kinase still bound, per cent of control (SIK2 (human)) of the same compound?
Its kinase still bound, per cent of control is 100%.

And the kinase still bound, per cent of control (STK32C (human))?
Its kinase still bound, per cent of control is 100%.

And the kinase still bound, per cent of control (CLK2 (human))?
The kinase still bound, per cent of control was 84%.

What about the kinase still bound, per cent of control (MLTK (human)) of the same compound?
The kinase still bound, per cent of control was 100%.

What about the kinase still bound, per cent of control [5] of the same compound?
The kinase still bound, per cent of control was 100%.
